What all share (assay type): cell-based
The test system of data set [1] is Clusters from pluripotent human embryonic stem cell line H1 (NIH code: WA01). The data set can be described thus: EdU incorporation and cell cycle stage (G0/G1, S, G2/M) by flow cytometry during definitive endoderm differentiation. Particulars: for cells in G0/G1 of the cell cycle: 48 hours after initiation of differentiation; for percentage of cells with EdU incorporation (mean of GDF8, WNT-3A, WNT-3A+Activin A and neat medium) / average decrease in the number of cells in G0/G1 (GDF8, WNT-3A, WNT-3A+Activin A and neat medium): six hours after the initiation of differentiation; for percentage of cells with EdU incorporation (mean of GDF8, WNT-3A, WNT-3A+Activin A and neat medium): SD ±1.2; for average decrease in the number of cells in G0/G1 (GDF8, WNT-3A, WNT-3A+Activin A and neat medium): Standard Deviation ±5%. How it is done: (§1) Clusters from pluripotent human embryonic stem cell line H1 (NIH code: WA01) were seeded at 0.5×10^6 cells/ml in Erlenmeyer shaker flasks in MCDB-131 medium containing […] sodium bicarbonate and 5.5 mM glucose (Catalog #A13051 DJ, Invitrogen, CA), which was supplemented with 2% fatty acid free BSA (Catalog #68700, Proliant, Iowa), 1× GlutaMAX™ (Catalog #35050-079, Invitrogen, CA), an additional 2.5 mM glucose (Catalog #G8769, Sigma) and ITS-X at 1:50,000 stock concentration (Catalog #51500056, Invitrogen, CA). MCDB-131 medium supplemented in this manner will be referred to as stage 1 basal medium or “Neat” medium for the purposes of this example. The GSK3B inhibitor, 14-Prop-2-en-1-yl-3,5,7,14,17,23,27-heptaazatetracyclo[19.3.1.1-2,6˜.1˜8,12˜]heptacosa-1(25),2(27),3,5,8(26),9,11,21,23-nonaen-16-one, U.S. patent application Ser. No. 12/494,789; incorporated herein by reference in its entirety will be referred to as “MCX”.
(§2) Clusters were treated on the first day of differentiation with one of six conditions: (1) Neat, (2) 3 μM MCX plus 100 ng/ml GDF-8 (Catalog #120-00, Peprotech), (3) 3 μM MCX only, (4) 100 ng/ml GDF-8 only, (5) 20 ng/ml WNT-3A (Catalog #1324-WN-002, R&D Systems, MN) plus 100 ng/ml Activin A (Catalog #338-AC, R&D Systems, MN), or (6) 20 ng/ml WNT-3A only.
(§3) Media in each of the conditions was changed at 24 and 48 hours after the initiation of differentiation. At these times, cells in conditions 1, 2, 3, and 4 were changed to fresh stage 1 basal media supplemented with 100 ng/ml GDF8 while cells in conditions 5 and 6 were changed to fresh stage 1 basal media supplemented with 100 ng/ml Activin A.
One hour prior to initiation of differentiation, and 5, 23, 29, 47, or 71 hours after the initiation of differentiation (referred to as “Time 0”), suspension samples were transferred to a non-tissue culture treated six well dish and incubated with EdU (Click-iT® EdU Kit, Life Technologies Corporation, Carlsbad, Calif.) for one hour. The EdU incubated cells were then assessed by flow cytometry at times 0, 6, 24, 30, 48, or 72 hours after initiation of differentiation to measure the percentage of cells in G0/G1, S, or G2/M stages of the cell cycle (FIGS. 81-87).
(A flow cytometer gives signals particle by particle.)

Data set [2] shares this test system. In words: Efficiency of definitive endoderm generation: percentage of cells expressing CXCR4 (CD184), CD99 and CD9 by flow cytometry after 3 days of differentiation in suspension culture. Conditions: for CD9 (% by FACS) / CD184 (% by FACS) / CD99 (% by FACS): end of day three. How it is done: Clusters from pluripotent human embryonic stem cell line H1 (NIH code: […] MCDB-131 medium supplemented in this manner will be referred to as “stage 1 basal medium” for the purposes of this application. […] No. 12/494,789; incorporated herein by reference in its entirety) and 100 ng/ml GDF-8 (Catalog #120-00, Peprotech), or 3 μM MCX only, or 20 ng/ml WNT-3A (Catalog #1324-WN-002, R&D Systems, MN) plus 100 ng/ml Activin A (Catalog #338-AC, R&D Systems, MN) or 20 ng/ml WNT-3A only. On day two, cells were transferred to fresh stage 1 basal media supplemented with either 100 ng/ml GDF8 or 100 ng/ml Activin A. Samples were collected for flow cytometry, PCR and Western Blot analysis at various time points ranging from time zero (immediately before addition of basal media plus supplements) up to 72 hours after beginning differentiation. The efficiency with which definitive endoderm was generated was determined after 3 days of differentiation under each condition by measuring the percentage of cells expressing the cells surface markers CXCR4, CD99 and CD9 using flow cytometry. […] Clusters from pluripotent human embryonic stem cell line H1 (NIH code: WA01) were seeded at cell densities ranging from 0.25×10^6 to 2×10^6 cells/ml in Erlenmeyer/shaker flasks or spinner flasks in stage 1 basal media as described in Example 9. Clusters were treated with stage 1 basal medium containing 1.5, 2, 3, or 4 μM MCX on day one of differentiation and with fresh stage 1 basal medium containing 100 ng/ml GDF-8 on day 2. No media exchange was performed on day three. Samples were collected for flow cytometry and PCR analysis at the end of day three of differentiation. The efficiency with which definitive endoderm was generated was then determined by measuring the percentage of cells expressing the cells surface markers CXCR4, CD99 and CD9 using flow cytometry. […] However, by increasing BSA concentrations, the effects of MCX can be modulated such that concentrations≥4 micromolar may be used. Conversely, concentrations≤1.5 micromolar may be used to generate definitive endoderm when used with lower BSA concentrations. The example was carried out to determine whether GlutaMAX™ supplementation was required for generation of definitive endoderm by suspending clusters in stage 1 basal media (described in Example 9) plus or minus GlutaMAX™, which was supplemented with 3 μM MCX on day one of differentiation and with fresh stage 1 basal medium containing 100 ng/ml GDF-8 on day 2. No media exchange was performed on day three. Samples were collected for flow cytometry and PCR analysis at the end of day three of differentiation. The efficiency with which definitive endoderm was generated was determined under each condition by measuring the percentage of cells expressing the cells surface markers CXCR4, CD99 and CD9 using flow cytometry. Clusters from pluripotent human embryonic stem cell line H1 (NIH code: […] Clusters were treated with stage 1 basal medium containing MCX and GDF-8 as described in Example 12. Samples were collected for flow cytometry at the end of day three of differentiation. Phase contrast images were also captured on each day of differentiation. The efficiency with which definitive endoderm was generated was then determined by measuring the percentage of cells expressing the cells surface markers CXCR4, CD99 and CD9 using flow cytometry. The data is shown in FACS plots in FIGS. 44 A&B and summarized in Table 17. […] In addition, it was observed that differences in bicarbonate levels correlated with differences in cluster morphologies at the end of stage 1, as observed by phase contrast microscopy (FIGS. 44 C&D). Also, cells differentiated under high bicarbonate levels were noted to form looser clusters than cells differentiated in 2.43 g/L of bicarbonate.

The test system is the same in data set [3]. In words: Cell viability of clusters treated with MCX in suspension culture. Particulars: MCX at concentrations above 4 μM. On the procedure: Clusters from pluripotent human embryonic stem cell line H1 (NIH code: WA01) were seeded at cell densities ranging from 0.25×10^6 to 2×10^6 cells/ml in Erlenmeyer/shaker flasks or spinner flasks in stage 1 basal media as described in Example 9. Clusters were treated with stage 1 basal medium containing 1.5, 2, 3, or 4 μM MCX on day one of differentiation and with fresh stage 1 basal medium containing 100 ng/ml GDF-8 on day 2. No media exchange was performed on day three. Samples were collected for flow cytometry and PCR analysis at the end of day three of differentiation.
The efficiency with which definitive endoderm was generated was then determined by measuring the percentage of cells expressing the cells surface markers CXCR4, CD99 and CD9 using flow cytometry. […] However, by increasing BSA concentrations, the effects of MCX can be modulated such that concentrations≥4 micromolar may be used. Conversely, concentrations≤1.5 micromolar may be used to generate definitive endoderm when used with lower BSA concentrations.

The test system is the same in data set [4]. In words: qRT-PCR gene expression, fold versus undifferentiated cells, 0-72 hours of differentiation (Example 15). How it is done:
as §1, §2, §3
However, consistent with the differences in cell cycle observed through the process of forming definitive endoderm, intermediate differences in gene expression were seen. […] (FIGS. 88c and e).
(In general: Quantitative PCR measures a nucleic acid by following its amplification.)

The mark [5] stands for this setting: 6 hours following initiation of differentiation.
Where [6] appears, read: 1.5 μM MCX on day one, 100 ng/ml GDF-8 on day 2.
Where [7] appears, read: 2 μM MCX on day one, 100 ng/ml GDF-8 on day 2.
[8] abbreviates: 3 μM MCX on day one, 100 ng/ml GDF-8 on day 2.
Setting [9] is: 4 μM MCX on day one, 100 ng/ml GDF-8 on day 2.
The mark [10] stands for this setting: 2.43 g/L Sodium bicarbonate in modified stage 1 basal media, MCX and GDF-8.
The mark [11] stands for this setting: 3.64 g/L Sodium bicarbonate in stage 1 basal media, MCX and GDF-8.

Consider `C=CCN1CC(=O)NCCCc2cncc(c2)-c2ncnc(n2)Nc2cccc(c2)C1` [MCX, 14-Prop-2-en-1-yl-3,5,7,14,17,23,27-heptaazatetracyclo[19.3.1.1˜2,6-˜0.1˜8,12.˜]heptacosa-1(25),2(27),3,5,8(26),9,11,21,23-non-aen-16-one], for which the “increase in G0/G1 cells” value in data set [1] (setting [5]) was determined as 54%. Also, the “reduction in the incorporation of EdU compared to the other four treatment conditions” value in data set [1] (setting [5]) is listed as approximately 40%. Besides, the “CD9 (% by FACS)” value was 68.4% in data set [2] (setting [6]), 0.2% in data set [2] (setting [7]), 0.2% in data set [2] (setting [8]) and 1.0% in data set [2] (setting [9]). Moreover, the “CD184 (% by FACS)” value in data set [2] (setting [6]) worked out at 67.8%; in data set [2] (setting [7]), 96.5%; in data set [2] (setting [8]) it was 96.0%; in data set [2] (setting [9]), 95.2%. For the same molecule, in data set [2] (3 μM MCX in the absence of a TGF-β family member on day one), the “definitive endoderm level versus 3 μM MCX plus 100 ng/ml GDF-8 or 20 ng/ml WNT-3A plus 100 ng/ml Activin A on day one” value is listed as “comparable”. Also, the “definitive endoderm positive cells (CXCR4 positive, CD9 positive)” value in data set [2] (MCX at concentrations less than 2 μM) is “progressively fewer definitive endoderm positive cells”. Moreover, the “effect on cell viability” value in data set [3] is given as “decreased cell viability”. Further, the “magnitude of induction of FGF4, FOXA2 and SOX17 compared to the other four conditions” value in data set [4] (24 hours after the initiation of differentiation) is recorded as “much lower”. For the same molecule, the “expression of genes for pluripotency (NANOG and POU5F1/OCT4) versus starting cell population or other four conditions” value in data set [4] (by 24 hours) is listed as “dramatically reduced”. Further, in data set [4] (end of definitive endoderm formation), the “definitive endoderm by gene expression versus 20 ng/ml WNT-3A plus 100 ng/ml Activin A on day one” value is on record as “comparable”. The “induction of genes T (brachyury), GATA4 and CDX2 versus WNT-3A+Activin A or the other three conditions” value in data set [4] (first 24 hours of differentiation) was “substantially higher”.
`O=C([O-])O.[Na+]` [Sodium bicarbonate]: the entries for the “CD9 (% by FACS)” value in data set [2] (setting [10]) and in data set [2] (setting [11]) were 12.3% and 5.5%, respectively. For the same molecule, the entries for the “CD99 (% by FACS)” value in data set [2] (setting [10]) and in data set [2] (setting [11]) were 66.7% and 92.7%, respectively. In addition, the “cells expressing CXCR4, on average” value is 87.4% in data set [2] (2.43 g/L sodium bicarbonate) and 97.35% in data set [2] (3.64 g/L sodium bicarbonate).
“GDF8: TGF-β family member, GDF8 (Catalog #120-00, Peprotech)”: in data set [1], the “cells in G0/G1 of the cell cycle” value was 48.5%; the “percentage of cells with EdU incorporation (mean of GDF8, WNT-3A, WNT-3A+Activin A and neat medium)” value was determined as 48.1%; the “average decrease in the number of cells in G0/G1 (GDF8, WNT-3A, WNT-3A+Activin A and neat medium)” value came out at 13%.

B1: WNT-3A: WNT-3A (Catalog #1324-WN-002, R&D Systems) (protein, UniProt P56704 19-352, looked up)
Protein Wnt-3a: SYPIWWSLAVGPQYSSLGSQPILCASIPGLVPKQLRFCRNYVEIMPSVAEGIKIGIQECQHQFRGRRWNCTTVHDSLAIFGPVLDKATRESAFVHAIASAGVAFAVTRSCAEGTAAICGCSSRHQGSPGKGWKWGGCSEDIEFGGMVSREFADARENRPDARSAMNRHNNEAGRQAIASHMHLKCKCHGLSGSCEVKTCWWSQPDFRAIGDFLKDKYDSASEMVVEKHRESRGWVETLRPRYTYFKVPTERDLVYYEASPNFCEPNPETGSFGTRDRTCNVSSHGIDGCDLLCCGRGHNARAERRREKCRCVFHWCCYVSCQECTRVYDVHTCK
With B1, in data set [1], the “cells in G0/G1 of the cell cycle” value was found to be 55.8%; the “percentage of cells with EdU incorporation (mean of GDF8, WNT-3A, WNT-3A+Activin A and neat medium)” value amounted to 48.1%; the “average decrease in the number of cells in G0/G1 (GDF8, WNT-3A, WNT-3A+Activin A and neat medium)” value is listed as 13%.
